In the supplement of paper PMC10307832:

Compound: C1CN(CCC1C(C2=CC3=C(C=C2)OCO3)(C4=CC5=C(C=C4)OCO5)O)C(=O)OC6=CC=C(C=C6)[N+](=O)[O-] [JZL-184] + Cc1nc(NC(=O)N2CCC[C@H]2C(N)=O)sc1-c1ccnc(C(C)(C)C(F)(F)F)c1 [Alpelisib] (partner 2 µM)
Assay: relative viability (nuclei count vs DMSO), 5 days (fraction); higher = more cells survive
How it was run: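 Lung cancer cell lines in 1536-well plates were dosed by pin tool the day after seeding, either with one drug alone or with a fixed anchor-drug dose plus five library-drug doses (not always all listed) in √10 steps. After 5 days, cells were fixed and their nuclei stained in one step (final 0.05% Triton X-100, 1% formaldehyde, 1 ug/ml Hoechst), then counted on 4× images. Relative viability is the nuclei count in treated wells divided by that in vehicle wells. Values are medians of duplicate plates.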

Row | Cell Line | relative viability (first compound 0.04 µM) | relative viability (first compound 0.4 µM) | relative viability (first compound 1.265 µM) | relative viability (first compound 4 µM)
1 | NCI-H838 | 1.08 | 1.09 | 1.03 | 0.957
2 | NCI-H3122 | 0.751 | 0.813 | 0.646 | 0.804
3 | SK-MES-1 | 0.938 | 0.851 | 0.863 | 0.896
4 | NCI-H1944 | 0.798 | 0.869 | 0.842 | 0.804
5 | LK-2 | 1.55 | 1.14 | 1.06 | 1.06
6 | PC-3 [JPC-3] | 1.09 | 0.961 | 1.05 | 1.01
7 | COR-L23 | 1.02 | 0.672 | 0.704 | 0.708
8 | NCI-H1355 | 0.774 | 0.826 | 0.828 | 0.81
9 | NCI-H460 | 0.643 | 0.465 | 0.47 | 0.401
10 | NCI-H1993 | 0.719 | 0.72 | 0.711 | 0.677
11 | HCC-15 | 0.933 | 0.899 | 0.877 | 0.931
12 | NCI-H23 | 0.876 | 0.631 | 0.587 | 0.646
13 | NCI-H1395 | 0.993 | 1.01 | 1.1 | 1.04
14 | NCI-H1666 | 1.04 | 0.919 | 1.05 | 1.06
15 | NCI-H2405 | 0.673 | 0.794 | 0.83 | 0.816
16 | NCI-H2009 | 1.17 | 1.1 | 1.16 | 1.09
17 | HCC-78 | 0.325 | 0.317 | 0.375 | 0.315
18 | NCI-H2170 | 0.806 | 0.793 | 0.74 | 0.736
19 | NCI-H1793 | 0.689 | 0.706 | 0.77 | 0.691
20 | HCC-366 | 0.355 | 0.436 | 0.506 | 0.358
21 | NCI-H1651 | 1.05 | 0.929 | 1.03 | 0.834
22 | LC-2-ad | 0.858 | 0.822 | 0.95 | 0.839
23 | HCC-827 | 0.724 | 0.927 | 0.981 | 0.952
24 | SK-LU-1 | 1.51 | 0.931 | 1.3 | 1.06

Row | Cell Line | relative viability (first compound 0.04 µM) | relative viability (first compound 0.4 µM) | relative viability (first compound 1.265 µM) | relative viability (first compound 4 µM)
25 | ABC-1 | 1.1 | 0.996 | 1.06 | 0.952
26 | NCI-H1703 | 0.335 | 0.295 | 0.389 | 0.294
27 | COR-L 105 | 0.998 | 1.2 | 0.837 | 0.916
28 | LOU-NH91 | 0.778 | 0.728 | 0.745 | 0.711
29 | NCI-H661 | 0.453 | 0.483 | 0.707 | 0.717
30 | LU99A | 0.587 | 0.535 | 0.538 | 0.486
31 | SW 1573 | 0.873 | 0.605 | 0.894 | 0.75
32 | HOP-62 | 1.13 | 1.05 | 1.05 | 0.96
33 | UMC-11 | 1.39 | 0.904 | 0.924 | 0.96
34 | LCLC-103H | 1.03 | 0.867 | 1.05 | 0.981
35 | NCI-H1734 | 0.658 | 0.545 | 0.714 | 0.642
36 | EKVX | 0.679 | 0.84 | 0.875 | 0.886
37 | HARA | 0.941 | 0.824 | 0.853 | 0.845
38 | EMC-BAC-2 | 0.794 | 0.733 | 0.776 | 0.729
39 | PC-14 | 0.975 | 0.892 | 0.965 | 0.847
40 | NCI-H520 | 1.02 | 0.965 | 1.02 | 0.897
41 | NCI-H1755 | 0.942 | 0.866 | 0.943 | 0.885
42 | NCI-H2087 | 1.11 | 1.02 | 1.11 | 1.01
43 | NCI-H2023 | 0.654 | 0.593 | 0.568 | 0.593
44 | CAL-12T | 1.5 | 1.39 | 1.08 | 1.17
45 | NCI-H2085 | 0.946 | 0.904 | 0.905 | 0.811
46 | NCI-H650 | 1.23 | 0.951 | 1.16 | 1.1
47 | LCLC-97TM1 | 0.242 |  | 0.252 | 0.295
48 | NCI-H2126 | 0.721 | 0.738 | 0.802 | 0.717

Row | Cell Line | relative viability (first compound 0.04 µM) | relative viability (first compound 0.4 µM) | relative viability (first compound 1.265 µM) | relative viability (first compound 4 µM)
49 | 201T | 0.991 | 1.05 | 1.04 | 0.997
50 | NCI-H1915 | 1.08 | 1.04 | 1.04 | 1.04
51 | BEN | 1.18 | 0.998 | 1.12 | 1.03
52 | NCI-H2347 | 1.05 | 1.02 | 1.05 | 1.1
53 | H3255 | 0.794 | 0.725 | 0.714 | 0.577
54 | NCI-H441 | 1.11 | 0.634 | 0.755 | 1.09
55 | NCI-H2228 | 0.894 | 0.726 | 0.709 | 0.789
56 | NCI-H1975 | 0.751 | 0.673 | 0.642 | 0.577
57 | NCI-H647 | 1.15 | 0.957 | 1.07 | 1.2
58 | A-427 | 1.08 | 1.06 | 1.1 | 0.979
59 | LXF-289 | 0.977 | 1.05 | 1.06 | 0.951
60 | NCI-H727 | 0.539 | 0.627 | 0.542 | 0.629
61 | NCI-H1437 | 1.12 | 0.971 | 0.92 | 0.916
62 | RERF-LC-KJ | 0.753 | 0.761 | 0.837 | 0.804
63 | NCI-H1792 | 0.835 | 0.613 | 0.762 | 0.757
64 | HCC-44 | 0.671 | 0.8 | 0.749 | 0.74
65 | EPLC-272H | 0.953 | 0.817 | 1.01 | 0.966
66 | IA-LM | 0.991 | 0.526 | 0.886 | 0.744
67 | NCI-H358 | 1.05 | 0.803 | 0.973 | 0.788
68 | NCI-H596 | 0.501 | 0.487 | 0.553 | 0.37
69 | NCI-H322M | 0.656 | 0.777 | 0.749 | 0.775
70 | NCI-H1563 | 0.934 | 0.964 | 0.899 | 0.914
